Our source for the IC50 values is patent US20240270751A1, “Pyrazolopyridinone Compounds” (BeiGene Ltd., priority 2021, published 2024).

pIC50: −log10 of the molar value.

For one assay, the target named is DGKα (Homo sapiens (Human), UniProt P23743). The assay can be described thus: Biochemical DGK IC50 assay, DGKα ADP-Glo assay. The note with it: 7.5 nM enzyme, 140 μM ATP, 80 μM DAG. An outline of the steps:
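ADP-Glo read-out with full-length DGKα on DAG/PS lipid micelle substrate in 25 mM HEPES pH 7.0, 0.5 mM EDTA, 160 mM octyl β-D-glucopyranoside. Compound final concentrations spanned 1.55˜10000 nM or 23.3˜150000 nM.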
On the technique in general: ADP-Glo turns the ADP formed in a reaction into a luminescent signal.

The target of another assay is DGKζ (Homo sapiens (Human), UniProt Q13574). As to the kind of experiment: Biochemical DGK IC50 assay, DGKζ ADP-Glo assay. As to conditions: 0.5 nM enzyme, 140 μM ATP, 80 μM DAG; read-out: DGKζ ADP-Glo assay IC50. An outline of the steps:
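Full-length human DGKζ, His-TEV tagged and purified from baculovirus-infected Sf9 cells, assayed by ADP-Glo with DAG/PS lipid micelle substrate prepared in 25 mM HEPES pH 7.0 with octyl glucoside. Final compound concentrations spanned 1.55–10000 nM or 23.3–150000 nM.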

In general, pIC50 refers to −log10 of the IC50, conventionally taken in molar units.

Sequence of DGKζ (Q13574 other isoform, or with tags, fused parts or gaps): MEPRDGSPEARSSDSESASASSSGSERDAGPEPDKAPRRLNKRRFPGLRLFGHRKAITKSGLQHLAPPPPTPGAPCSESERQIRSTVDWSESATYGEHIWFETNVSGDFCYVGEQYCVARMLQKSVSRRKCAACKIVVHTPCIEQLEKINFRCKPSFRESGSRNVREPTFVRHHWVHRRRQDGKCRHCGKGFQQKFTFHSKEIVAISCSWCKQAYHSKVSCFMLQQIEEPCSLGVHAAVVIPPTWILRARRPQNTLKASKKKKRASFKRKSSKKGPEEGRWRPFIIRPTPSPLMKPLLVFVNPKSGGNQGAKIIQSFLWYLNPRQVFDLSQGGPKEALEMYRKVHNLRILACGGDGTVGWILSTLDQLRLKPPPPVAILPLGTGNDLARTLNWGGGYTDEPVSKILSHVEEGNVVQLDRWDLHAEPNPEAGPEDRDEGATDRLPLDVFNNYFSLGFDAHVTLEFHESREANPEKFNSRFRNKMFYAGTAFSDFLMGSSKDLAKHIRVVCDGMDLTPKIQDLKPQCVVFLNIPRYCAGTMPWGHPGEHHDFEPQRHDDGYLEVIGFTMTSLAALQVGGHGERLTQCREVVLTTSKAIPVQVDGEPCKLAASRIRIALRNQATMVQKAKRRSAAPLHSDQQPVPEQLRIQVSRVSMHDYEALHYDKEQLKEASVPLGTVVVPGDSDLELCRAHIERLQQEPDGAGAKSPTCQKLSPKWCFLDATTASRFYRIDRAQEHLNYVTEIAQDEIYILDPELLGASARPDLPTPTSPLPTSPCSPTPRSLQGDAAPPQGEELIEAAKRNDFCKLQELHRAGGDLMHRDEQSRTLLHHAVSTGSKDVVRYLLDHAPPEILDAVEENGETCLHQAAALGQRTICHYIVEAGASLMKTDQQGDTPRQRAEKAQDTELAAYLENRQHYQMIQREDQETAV
Sequence of DGKα (P23743 whole entry): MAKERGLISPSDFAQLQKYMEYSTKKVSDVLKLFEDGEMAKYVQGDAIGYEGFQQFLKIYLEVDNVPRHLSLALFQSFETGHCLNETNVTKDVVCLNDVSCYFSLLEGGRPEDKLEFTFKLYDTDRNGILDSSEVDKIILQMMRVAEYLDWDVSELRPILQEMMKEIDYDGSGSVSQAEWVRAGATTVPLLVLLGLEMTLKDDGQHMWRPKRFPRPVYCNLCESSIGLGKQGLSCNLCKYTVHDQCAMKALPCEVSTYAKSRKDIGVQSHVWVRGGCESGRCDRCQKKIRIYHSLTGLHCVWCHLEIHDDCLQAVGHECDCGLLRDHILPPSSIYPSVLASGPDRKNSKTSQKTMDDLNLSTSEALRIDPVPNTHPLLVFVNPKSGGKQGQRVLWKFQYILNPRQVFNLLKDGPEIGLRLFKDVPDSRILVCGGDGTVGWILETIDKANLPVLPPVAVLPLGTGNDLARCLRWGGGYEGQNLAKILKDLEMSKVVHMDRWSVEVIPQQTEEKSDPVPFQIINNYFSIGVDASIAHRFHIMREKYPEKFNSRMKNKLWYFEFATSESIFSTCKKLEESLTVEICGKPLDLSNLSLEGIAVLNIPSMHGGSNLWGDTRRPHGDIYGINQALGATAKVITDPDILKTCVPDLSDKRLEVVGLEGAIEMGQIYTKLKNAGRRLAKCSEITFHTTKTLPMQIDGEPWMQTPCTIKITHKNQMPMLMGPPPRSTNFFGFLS

For `CC[C@H]1CN(C(C)c2cnc3ccccc3n2)[C@H](CC)CN1c1cc(=O)n(C)c2cn(CC#N)nc12` (single isomer, unassigned) [Compound A155a], the results for the pIC50 against DGKα and on DGKζ were 6.14 and 5.86, respectively.

As for `CC[C@H]1CN(C(C)c2ccc(OC(F)(F)F)cn2)[C@H](CC)CN1c1cc(=O)n(C)c2cn(CC#N)nc12` (some centres unmarked) [Compound A361], the pIC50 was 8.29 at DGKα and 6.26 at DGKζ.

Turning to `CC[C@@H]1CN(c2c(C#N)c(=O)[nH]c3cn(CC#N)nc23)[C@@H](C)CN1C(C)c1ccc2nccnc2c1` (single isomer, unassigned) [Compound A200a], the values for the negative-log IC50 (pIC50) on DGKα and on DGKζ were 5.15 and 6.99, respectively.

As for `CC(c1ccc2ncc(CO)nc2c1)N1C[C@H](C)N(c2cc(=O)n(C)c3cn(CC#N)nc23)C[C@H]1C` (single isomer, unassigned) [Compound A309a], the pIC50 at DGKα was 3.93; at DGKζ, less than 5.00.

With `CC[C@H]1CN(C(C)c2cn(CC)c(C)n2)[C@H](CC)CN1c1cc(=O)n(C)c2cn(CC#N)nc12` (some centres unmarked) [Compound A208], the pIC50 on DGKα and on DGKζ was less than 5.00 in each case.

Turning to `CC[C@H]1CN(C(C)c2cnc(Cl)cc2C(F)(F)F)[C@H](CC)CN1c1cc(=O)n(C)c2cn(CC#N)nc12` (some centres unmarked) [Compound A226], the pIC50 is 5.07 against DGKα and 5.64 at DGKζ.

Take `C[C@@H]1CN(c2c(C#N)c(=O)n(C)c3cn(CC#N)nc23)[C@@H](C)CN1[C@@H](C)c1ccc2nccnc2c1` [Compound A134, 2-(cyanomethyl)-7-((2S,5R)-2,5-dimethyl-4-((S)-1-(quinoxalin-6-yl)ethyl)piperazin-1-yl)-4-methyl-5-oxo-4,5-dihydro-2H-pyrazolo[4,3-b]pyridine-6-carbonitrile]: the pIC50 against DGKα is 5.71; at DGKζ, 7.46.

For `CC[C@H]1CN(C(C)c2ccc(F)cc2C)[C@H](CC)CN1c1cc(=O)n(C)c2cn(CC#N)nc12` (stereo partly drawn) [Compound A84, 2-(7-((2S,5R)-2,5-diethyl-4-(1-(4-fluoro-2-methylphenyl)ethyl)piperazin-1-yl)-4-methyl-5-oxo-4,5-dihydro-2H-pyrazolo[4,3-b]pyridin-2-yl)acetonitrile], the pIC50 at DGKα was 5.54; at DGKζ, 6.89.

In the case of `CC[C@H]1CN(C(C)c2cnn(C)c2C(F)(F)F)[C@H](CC)CN1c1cc(=O)n(C)c2cn(CC#N)nc12` (stereo partly drawn) [Compound A233, 2-(7-((2S,5R)-2,5-diethyl-4-(1-(1-methyl-5-(trifluoromethyl)-1H-pyrazol-4-yl)ethyl)piperazin-1-yl)-4-methyl-5-oxo-4,5-dihydro-2H-pyrazolo[4,3-b]pyridin-2-yl)acetonitrile], the pIC50 is 5.16 at DGKα and 7.48 at DGKζ.

For the compound `CC[C@H]1CN(C(C)c2cnc3ccccc3c2)[C@H](CC)CN1c1cc(=O)n(C)c2cn(CC#N)nc12` (some centres unmarked) [Compound A56], the pIC50 is 6.25 at DGKα and 7.57 on DGKζ.

Turning to `CC[C@H]1CN(C(C)c2ccc3nccnc3c2)[C@H](CC)CN1c1cc(=O)n(CC)c2cn(CC#N)nc12` (stereo partly drawn) [Compound A47, 2-(7-((2S,5R)-2,5-diethyl-4-(1-(quinoxalin-6-yl)ethyl)piperazin-1-yl)-4-ethyl-5-oxo-4,5-dihydro-2H-pyrazolo[4,3-b]pyridin-2-yl)acetonitrile], the figures for the pIC50 at DGKα and on DGKζ were 5.38 and 8.03, respectively.

Consider `CC[C@H]1CN(C(C)c2ccc(C(N)=O)cc2)[C@H](CC)CN1c1cc(=O)n(C)c2cn(CC#N)nc12` (single isomer, unassigned) [Compound A120a], for which the negative logarithm of the IC50 (pIC50) was 6.75 against DGKα and 5.53 at DGKζ.

As for `[2H]C([2H])([2H])n1c(=O)cc(N2C[C@@H](CC)N(C(C)c3ccc4nccnc4c3)C[C@@H]2CC)c2nn(CC#N)cc21` (some centres unmarked) [Compound A51], the results for the pIC50 against DGKα and at DGKζ were 6.46 and 8.11, respectively.

With `CC[C@H]1CN(C(C)c2ccc(C(F)(F)F)nc2)[C@H](CC)CN1c1cc(=O)n(C)c2cn(CC#N)nc12` (single isomer, unassigned) [Compound A135a], the values for the pIC50 at DGKα and on DGKζ were 6.40 and 7.01, respectively.

Turning to `CCS(=O)(=O)N1CC(CC#N)(n2cc3c(n2)c(N2C[C@@H](C)N(C(C)c4ccc5nccnc5c4)C[C@@H]2C)cc(=O)n3C)C1` (stereo partly drawn) [Compound A19, 2-(3-(7-((2S,5R)-2,5-dimethyl-4-(1-(quinoxalin-6-yl)ethyl)piperazin-1-yl)-4-methyl-5-oxo-4,5-dihydro-2H-pyrazolo[4,3-b]pyridin-2-yl)-1-(ethylsulfonyl)azetidin-3-yl)acetonitrile], the figures for the pIC50 against DGKα and on DGKζ were less than 3.82 and 4.62, respectively.

For the compound `CC(c1ccc(F)cn1)N1C[C@H](C)N(c2cc(=O)n(C)c3cn(CC#N)nc23)C[C@H]1C` (some centres unmarked) [Compound A33], the pIC50 on DGKα is 6.80; at DGKζ it was less than 5.00.

Consider `Cc1c2c(nn1CC#N)c(N1C[C@@H](C)N(C(C)c3ccc4nccnc4c3)C[C@@H]1C)cc(=O)n2C` (stereo partly drawn) [Compound A209, 2-(7-((2S,5R)-2,5-dimethyl-4-(1-(quinoxalin-6-yl)ethyl)piperazin-1-yl)-3,4-dimethyl-5-oxo-4,5-dihydro-2H-pyrazolo[4,3-b]pyridin-2-yl)acetonitrile], for which the figures for the pIC50 on DGKα and at DGKζ were 4.67 and 7.30, respectively.

With `CC[C@H]1CN(C(C)c2ccc3nccnc3c2)[C@H](CC)CN1c1cc(=O)n(CC(F)F)c2cn(CC#N)nc12` (single isomer, unassigned) [Compound A139a], the results for the pIC50 against DGKα and at DGKζ were less than 5.00 and 6.95, respectively.

For the compound `CC(c1ccc2nccnc2c1)N1CCN(c2cc(=O)n(C)c3cn(CC#N)nc23)CC1CO` (centres unmarked) [Compound A184], the pIC50 was less than 5.00 at DGKα and 5.22 on DGKζ.

Regarding `CC[C@H]1CN(C(C)c2ccc(C(F)(F)F)cn2)[C@H](CC)CN1c1cc(=O)n(C)c2cn(CC#N)nc12` (single isomer, unassigned) [Compound A348b], the pIC50 was 8.05 at DGKα and 6.86 at DGKζ.

As to `CC[C@H]1CN(C(C)c2ccc(F)cc2C(F)(F)F)[C@H](CC)CN1c1cc(=O)[nH]c2cn(CC#N)nc12` (stereo partly drawn) [Compound A265, 2-(7-((2S,5R)-2,5-diethyl-4-(1-(4-fluoro-2-(trifluoromethyl)phenyl)ethyl)piperazin-1-yl)-5-oxo-4,5-dihydro-2H-pyrazolo[4,3-b]pyridin-2-yl)acetonitrile], the pIC50 against DGKα was less than 5.00; at DGKζ, 6.13.

Regarding `CC(c1ccc(F)cc1C(F)(F)F)N1C[C@H](C)N(c2cc(=O)n(C)c3cn(CC#N)nc23)C[C@H]1C` (single isomer, unassigned) [Compound A236a], the pIC50 against DGKα and on DGKζ was less than 5.00 throughout.

As for `CC[C@H]1CN(C(C)c2ccc(F)cc2C(F)(F)F)[C@H](CC)CN1c1cc(=O)n(C)c2cn(CC#N)nc12` (single isomer, unassigned) [Compound A196a], the values for the pIC50 against DGKα and on DGKζ were less than 5.00 and 5.87, respectively.

Regarding `CC[C@H]1CN(C(C)c2cc(Cl)nn2CC)[C@H](CC)CN1c1cc(=O)n(C)c2cn(CC#N)nc12` (some centres unmarked) [Compound A212], the pIC50 was less than 5.00 against DGKα and 5.95 on DGKζ.

Regarding `CC[C@H]1CN(C(C)c2nc3cccc(C(F)(F)F)c3n2CC)[C@H](CC)CN1c1cc(=O)n(C)c2cn(CC#N)nc12` (single isomer, unassigned) [Compound A230a], the results for the pIC50 at DGKα and on DGKζ were less than 5.00 and 5.84, respectively.
